The structures appear in SMILES notation.

The test deals with Haemaphysalis longicornis. The test is described as follows: Test Example 10: Haemaphysalis longicornis, treated filter paper pouch. Type of test: in vivo. The note with it: 0.5 mg compound on filter paper 5×10 cm; non-blood sucking nymphal ticks; after 2 days. The protocol: In 1 mL of acetone, 0.5 mg of any one of the present compounds 1 to 48 was dissolved, and the solution was spread uniformly on one side of a filter paper (TOYO No. 2; 5×10 cm). After dried, the filter paper was folded into two, and the sides were clipped to make a pouch. Into the pouch, tested ticks (Haemaphysalis longicornis, non-blood sucking nymphal ticks, 10 ticks in a group) were placed. The pouch was clipped and sealed. After 2 days, the number of dead ticks was counted.
For the compound `COc1ccc(N=C(Oc2cccc(C)c2)C(C)=COc2cccc(C)c2)cc1` [Compound 189, 3-methylphenyl N-(4-methoxyphenyl)-2-methyl-3-(3-methylphenyloxy)-2-propenimidate], the death rate stood at 100%. Take `COc1ccc(OC=C(C)C(=Nc2ccc(C)cc2)Oc2cccc(C)c2)cc1` [Compound 270, 3-methylphenyl 3-(4-methoxyphenyloxy)-2-methyl-N-(4-methylphenyl)-2-propenimidate]: the death rate is recorded as 100%.

As to `CCc1cccc(OC(=Nc2ccc(OC)cc2)C(C)=COc2ccccc2OC)c1` [Compound 247, 3-ethylphenyl N-(4-methoxyphenyl)-3-(2-methoxyphenyloxy)-2-methyl-2-propenimidate], the death rate turned out to be 100%. Under `COc1cccc(OC(=Nc2ccccc2)C(C)=COc2ccccc2OC)c1` [Compound 236, 3-methoxyphenyl 3-(2-methoxyphenyloxy)-2-methyl-N-phenyl-2-propenimidate] stands 100%; under `CC(=COc1ccc(C)cc1)C(=Nc1ccccc1)Oc1cccc(C(F)(F)F)c1` [Compound 206, 3-(trifluoromethyl)phenyl 2-methyl-3-(4-methylphenyloxy)-N-phenyl-2-propenimidate], 100%. To `CCOc1cccc(OC(=Nc2ccccc2)C(C)=COc2cccc(C)c2)c1` [Compound 179, 3-ethoxyphenyl 2-methyl-3-(3-methylphenyloxy)-N-phenyl-2-propenimidate] belongs 100%. Consider `CC(=COc1ccc(C)c(C)c1)C(=Nc1ccccc1)Oc1ccccc1` [Compound 292, phenyl 3-(3,4-dimethylphenyloxy)-2-methyl-N-phenyl-2-propenimidate], for which the death rate is given as 100%.

`COc1ccc(OC(=Nc2ccccc2)C(C)=COc2ccc(C)cc2)cc1` [Compound 205, 4-methoxyphenyl 2-methyl-3-(4-methylphenyloxy)-N-phenyl-2-propenimidate] yielded a death rate of 100%.

`COc1cccc(OC(=Nc2ccc(C)cc2)C(C)=COc2ccc(C)cc2)c1` [Compound 220, 3-methoxyphenyl 2-methyl-N-(4-methylphenyl)-3-(4-methylphenyloxy)-2-propenimidate] showed a death rate of 100%. `CC(=COc1ccc(C)cc1)C(=Nc1ccc(C)cc1)Oc1cccc(F)c1` [Compound 214, 3-fluorophenyl 2-methyl-N-(4-methylphenyl)-3-(4-methylphenyloxy)-2-propenimidate] showed a death rate of 100%. Compound `CCc1cccc(OC(=Nc2ccccc2)C(C)=COc2cccc(C)c2)c1` [Compound 177, 3-ethylphenyl 2-methyl-3-(3-methylphenyloxy)-N-phenyl-2-propenimidate] yielded a death rate of 100%. To `CCc1cccc(OC(=Nc2ccc(C)c(C)c2)C(C)=COc2ccc(OC)cc2)c1` [Compound 284, 3-ethylphenyl N-(3,4-dimethylphenyl)-3-(4-methoxyphenyloxy)-2-methyl-2-propenimidate] belongs 100%; to `COc1ccc(N=C(Oc2ccccc2)C(C)=COc2ccccc2OC)cc1` [Compound 245, phenyl N-(4-methoxyphenyl)-3-(2-methoxyphenyloxy)-2-methyl-2-propenimidate], 100%; to `CC(=COc1ccc(Cl)cc1)C(=Nc1ccccc1)Oc1ccccc1` [Compound 231, phenyl 3-(4-chlorophenyloxy)-2-methyl-N-phenyl-2-propenimidate], 100%. `COc1ccccc1OC=C(C)C(=Nc1ccccc1)Oc1cc(C)cc(C)c1` [Compound 238, 3,5-dimethylphenyl 3-(2-methoxyphenyloxy)-2-methyl-N-phenyl-2-propenimidate]: the death rate was 100%. Compound `COc1ccc(N=C(Oc2ccccc2)C(C)=COc2cccc(C)c2)cc1` [Compound 188, phenyl N-(4-methoxyphenyl)-2-methyl-3-(3-methylphenyloxy)-2-propenimidate] came in with a death rate of 100%. Under `CCC(=COc1ccccc1)C(=Nc1ccccc1)Oc1ccccc1` [Compound 301, phenyl 2-ethyl-3-phenoxy-N-phenyl-2-propenimidate] stands 100%; under `CCOc1cccc(OC(=Nc2ccc(C)cc2)C(C)=COc2ccccc2OC)c1` [Compound 243, 3-ethoxyphenyl 3-(2-methoxyphenyloxy)-2-methyl-N-(4-methylphenyl)-2-propenimidate], 100%. `COc1ccc(OC=C(C)C(=Nc2ccccc2)Oc2ccccc2)cc1` [Compound 262, phenyl 3-(4-methoxyphenyloxy)-2-methyl-N-phenyl-2-propenimidate] came in with a death rate of 100%. Under `CC(=COc1ccc(C)cc1)C(=Nc1ccc(C)cc1)Oc1cccc(C)c1` [Compound 210, 3-methylphenyl 2-methyl-N-(4-methylphenyl)-3-(4-methylphenyloxy)-2-propenimidate] stands 100%; under `COc1ccccc1OC=C(C)C(=Nc1ccc(C)cc1)Oc1cccc(C)c1` [Compound 240, 3-methylphenyl 3-(2-methoxyphenyloxy)-2-methyl-N-(4-methylphenyl)-2-propenimidate], 100%. `CC(=COc1ccc(C)cc1)C(=Nc1ccccc1)Oc1cccc(C)c1` [Compound 195, 3-methylphenyl 2-methyl-3-(4-methylphenyloxy)-N-phenyl-2-propenimidate] showed a death rate of 100%. For the compound `CC(=COc1ccc(C)cc1)C(=Nc1ccccc1)Oc1ccc2ccccc2c1` [Compound 207, 2-naphthyl 2-methyl-3-(4-methylphenyloxy)-N-phenyl-2-propenimidate], the death rate is 100%. To `CCOc1cccc(OC(=Nc2ccc(C)cc2)C(C)=COc2cccc(C)c2)c1` [Compound 186, 3-ethoxyphenyl 2-methyl-N-(4-methylphenyl)-3-(3-methylphenyloxy)-2-propenimidate] belongs 100%. Under `CCC(=COc1ccccc1)C(=Nc1ccccc1)Sc1ccccc1` [Compound 300, phenyl 2-ethyl-3-phenoxy-N-phenyl-2-propenimidothioate] stands 100%. For `CC(=COc1cccc(C)c1)C(=Nc1ccccc1)Oc1cc(C)cc(C)c1` [Compound 182, 3,5-dimethylphenyl 2-methyl-3-(3-methylphenyloxy)-N-phenyl-2-propenimidate], the death rate was 100%. Under `COc1cccc(OC=C(C)C(=Nc2ccc(C)cc2)Oc2cccc(C)c2)c1` [Compound 261, 3-methylphenyl 3-(3-methoxyphenyloxy)-2-methyl-N-(4-methylphenyl)-2-propenimidate] stands 100%; under `CC(=COc1ccc(C)cc1)C(=Nc1ccccc1)Oc1ccccc1C` [Compound 194, 2-methylphenyl 2-methyl-3-(4-methylphenyloxy)-N-phenyl-2-propenimidate], 100%; under `COc1cccc(OC(=Nc2ccc(C)cc2)C(C)=COc2ccccc2OC)c1` [Compound 242, 3-methoxyphenyl 3-(2-methoxyphenyloxy)-2-methyl-N-(4-methylphenyl)-2-propenimidate], 100%. `CC(=COc1cccc(C)c1)C(=Nc1ccccc1)Oc1cccc(C(C)C)c1` [Compound 178, 3-isopropylphenyl 2-methyl-3-(3-methylphenyloxy)-N-phenyl-2-propenimidate]: the death rate worked out at 100%. `COc1ccccc1OC=C(C)C(=Nc1ccc(C)cc1)Oc1ccccc1` [Compound 239, phenyl 3-(2-methoxyphenyloxy)-2-methyl-N-(4-methylphenyl)-2-propenimidate] returned a death rate of 100%. Under `COc1ccccc1OC=C(C)C(=Nc1ccccc1)Oc1ccccc1` [Compound 232, phenyl 3-(2-methoxyphenyloxy)-2-methyl-N-phenyl-2-propenimidate] stands 100%; under `COc1ccccc1OC=C(C)C(=Nc1ccc(C)cc1)Oc1cc(C)cc(C)c1` [Compound 244, 3,5-dimethylphenyl 3-(2-methoxyphenyloxy)-2-methyl-N-(4-methylphenyl)-2-propenimidate], 100%; under `COc1ccccc1OC=C(C)C(=Nc1ccc(C)c(C)c1)Oc1cccc(C)c1` [Compound 252, 3-methylphenyl N-(3,4-dimethylphenyl)-3-(2-methoxyphenyloxy)-2-methyl-2-propenimidate], 100%. Under `CCc1cccc(OC(=Nc2ccc(C)cc2)C(C)=COc2ccc(OC)cc2)c1` [Compound 272, 3-ethylphenyl 3-(4-methoxyphenyloxy)-2-methyl-N-(4-methylphenyl)-2-propenimidate] stands 100%.

As to `COc1cccc(OC=C(C)C(=Nc2ccccc2)Oc2ccccc2)c1` [Compound 257, phenyl 3-(3-methoxyphenyloxy)-2-methyl-N-phenyl-2-propenimidate], the death rate is on record as 100%.

Take `CC(=COc1ccc(C)cc1)C(=Nc1ccccc1)Oc1ccc(Cl)cc1` [Compound 202, 4-chlorophenyl 2-methyl-3-(4-methylphenyloxy)-N-phenyl-2-propenimidate]: the death rate is listed as 100%.

For the compound `CCCC(=COc1ccccc1)C(=Nc1ccccc1)Oc1ccccc1` [Compound 322, phenyl 3-phenoxy-N-phenyl-2-n-propyl-2-propenimidate], the death rate was 100%.

On to `CC(=COc1ccc(C)cc1)C(=Nc1ccc(C)cc1)Oc1ccc(F)cc1` [Compound 215, 4-fluorophenyl 2-methyl-N-(4-methylphenyl)-3-(4-methylphenyloxy)-2-propenimidate], for which the death rate is 100%. Under `COc1ccc(OC(=Nc2ccc(C)cc2)C(C)=COc2ccc(C)cc2)cc1` [Compound 221, 4-methoxyphenyl 2-methyl-N-(4-methylphenyl)-3-(4-methylphenyloxy)-2-propenimidate] stands 100%.

(Values after patent publication US8278473B2, “Alpha, beta-unsaturated imidate compound and pesticidal composition containing the same” (Sumitomo Chemical Company, Limited, priority 2007, dated 2012).)
